Values quoted from earlier work, collected in patent publication US6342486B1, “Polymer glucan ether derivatives, their manufacturing as well as their use” (Mibelle AG Cosmetics, priority 1996, dated 2002).

Conditions: isolated glucan from yeast cells

Substance: 1,3-beta-polyglucose [glucan]
- solubility in aqueous systems: extremely low solubility
